pIC50: −log10 of the molar value.

34 compounds from patent US20230293518A1 (Edgewise Therapeutics, Inc., priority 2020, published 2023) can be followed below.

In one experiment the target is skeletal myofibrils (myosin ATPase). The experiment is described as follows: Skeletal Myofibril ATPase Assay. It counts as biochemical. As to conditions: Table 4A. The method, then:
Example 12. Skeletal Myofibril ATPase Assay
Overview: Myosin ATPase activity is assessed by using a coupled reaction system, in which ADP generated by the myosin ATPase function is coupled to the disappearance of NADH through the pyruvate kinase/lactate dehydrogenase (PK-LDH) system. ATPase activity produces ADP, which is used as a substrate for PK to produce pyruvate and regenerate ATP. The pyruvate is then used as a substrate by LDH to oxidize NADH to NAD+. The rate of the reaction is monitored through the time-dependent disappearance of NADH using absorbance at 340 nm. Inhibition of ATPase activity by the assayed compounds is indicated by a reduced rate of NADH loss, relative to vehicle-treated controls, over the experimental time window. To assess the selectivity of the assayed compounds for skeletal myofibrils, the compounds are counter-screened in cardiac myofibrils.
Materials: The following stock solutions and reagents were used in the Skeletal Myofibril ATPase Assay:
Stock Solutions of pCa buffer. Combine PIPES, CaCl2, and EGTA solutions with 70 mL of water. Adjust pH to 7.0 and bring final volume to 100 mL.
Buffer A & Buffer B. Buffers were stored on ice until use.
Skeletal Myofibril ATPase Assay Procedure: BSA, ATP, NADH, PEP, and DTT solutions were thawed at room temperature, then transferred to ice. Pellet-frozen myofibrils were transferred with approximately twice the required volume into a sufficiently large tube and capped. Myofibrils were thawed by rolling in a water bath for approximately 15 min at room temperature and cooled on ice. Buffers A and B were prepared by adjusting volumes as necessary for required number of wells and stored on ice. 0.5 μL of the compounds to be assayed were added into wells. 25 μL of Buffer A was dispensed into the wells, followed by 25 μL of Buffer B. The wells were measured for absorbance at 340 nm, using a kinetic protocol in which the wells are read every 1.5-2 min for 45 min. The slope of the data was approximated by subtracting the minimum absorbance value from the maximum value for each well. This was accomplished either in the SoftMax Pro software or in a spreadsheet program such as Excel. Using GraphPad Prism 8.0, the data was normalized by assigning a value of 100% to the 1% DMSO vehicle wells. Typically, a normalized 0% value was simply assigned to a (Max−Min) value of 0. The normalized data was fit to a Four Parameter Logistic sigmoidal equation, constraining the bottom to be 0 or greater. Compounds of Table 1, 2, and 3 were tested and results of the assay appear in Tables 4a-4c. A=IC50 is less than or equal to 10 μM; B═IC50 is greater than 10 μM and less than 100 μM; C═IC50 is greater than 100 μM.
For `CCNC(=O)Cn1nc(-c2ccc(NC3CCC3)nc2)ccc1=O` [Compound I-62, 2-(3-(6-(cyclobutylamino)pyridin-3-yl)-6-oxopyridazin-1(6H)-yl)-N-ethylacetamide], the negative-log IC50 (pIC50) is more than 5.00. `CC[C@H](C)NC(=O)Cn1nc(-c2ccc(OC(F)F)nc2)ccc1=O` [Compound I-67, (S)-N-(sec-butyl)-2-(3-(6-(difluoromethoxy)pyridin-3-yl)-6-oxopyridazin-1(6H)-yl)acetamide] gave a pIC50 of more than 5.00. In turn, `O=C(Cn1nc(-c2ccc(NC34CC(C3)C4)nc2)ccc1=O)NC12CC(C1)C2` [Compound I-46, N-(bicyclo[1.1.1]pentan-1-yl)-2-(3-(6-(bicyclo[1.1.1]pentan-1-ylamino)pyridin-3-yl)-6-oxopyridazin-1(6H)-yl)acetamide] had a negative-log IC50 (pIC50) of more than 5.00. On the same count and under the same terms, as for `CCNC(=O)Cn1nc(-c2cnc(Nc3ccc(F)cc3)nc2)ccc1=O` [Compound I-2, N-ethyl-2-(3-(2-((4-fluorophenyl)amino)pyrimidin-5-yl)-6-oxopyridazin-1(6H)-yl)acetamide], the figure is more than 5.00; as for `CCNC(=O)Cn1nc(-c2ccc(N(C)C3CCC3)nc2)ccc1=O` [Compound I-61, 2-(3-(6-(cyclobutyl(methyl)amino)pyridin-3-yl)-6-oxopyridazin-1(6H)-yl)-N-ethylacetamide], more than 5.00. For `Cn1nccc1CNC(=O)Cn1nc(-c2ccc(OC(F)F)nc2)ccc1=O` [Compound I-30, 2-(3-(6-(difluoromethoxy)pyridin-3-yl)-6-oxopyridazin-1(6H)-yl)-N-((1-methyl-1H-pyrazol-5-yl)methyl)acetamide], the pIC50 was less than 4.00. Same read-out and setting: the same measure for `CCNC(=O)Cn1nc(-c2ccc(OC3CC(F)(F)C3)nc2)ccc1=O` [Compound I-75, 2-(3-(6-(3,3-difluorocyclobutoxy)pyridin-3-yl)-6-oxopyridazin-1(6H)-yl)-N-ethylacetamide]: 4.00 to 5.00; for `CCNC(=O)Cn1nc(-c2ccc(NC3CC(F)(F)C3)nc2)ccc1=O` [Compound I-74, 2-(3-(6-((3,3-difluorocyclobutyl)amino)pyridin-3-yl)-6-oxopyridazin-1(6H)-yl)-N-ethylacetamide]: 4.00 to 5.00; for `O=C(Cn1nc(-c2ccc(OC(F)F)nc2)ccc1=O)NC1CC(F)(F)C1` [Compound I-33, N-(3,3-difluorocyclobutyl)-2-(3-(6-(difluoromethoxy)pyridin-3-yl)-6-oxopyridazin-1(6H)-yl)acetamide]: less than 4.00. `CC1(NC(=O)Cn2nc(-c3ccc(OC(F)F)nc3)ccc2=O)CCC1` [Compound I-15, 2-(3-(6-(difluoromethoxy)pyridin-3-yl)-6-oxopyridazin-1(6H)-yl)-N-(1-methylcyclobutyl) acetamide] gave a pIC50 of 4.00 to 5.00. In turn, `CCNC(=O)Cn1nc(-c2ccc(OC(C)C)nc2)ccc1=O` [Compound I-27, N-ethyl-2-(3-(6-isopropoxypyridin-3-yl)-6-oxopyridazin-1(6H)-yl)acetamide] gave a pIC50 of less than 4.00.

For the compound `CCNC(=O)Cn1nc(-c2ccc(NC3CCOCC3)nc2)ccc1=O` [Compound I-45, N-ethyl-2-(6-oxo-3-(6-((tetrahydro-2H-pyran-4-yl)amino)pyridin-3-yl)pyridazin-1(6H)-yl)acetamide], the negative-log IC50 (pIC50) was less than 4.00.

Regarding `CCNC(=O)Cn1nc(-c2ccc(N3CCCC3C(F)(F)F)nc2)ccc1=O` (stereo not shown) [Compound I-48, N-ethyl-2-(6-oxo-3-(6-(2-(trifluoromethyl)pyrrolidin-1-yl)pyridin-3-yl)pyridazin-1(6H)-yl)acetamide], the negative logarithm of the IC50 (pIC50) was more than 5.00. The same measure, in the same setting: the same measure for `CCNC(=O)Cn1nc(-c2ccc(OCC(F)(F)F)nc2)ccc1=O` [Compound I-13, N-ethyl-2-(6-oxo-3-(6-(2,2,2-trifluoroethoxy)pyridin-3-yl)pyridazin-1(6H)-yl)acetamide]: 4.00 to 5.00.

Staying with this experiment, now noted: Table 4B.
Compound `O=C(Cn1nc(-c2ccc(OC(F)F)cc2)ccc1=O)NC1CCC1` [II-9, N-cyclobutyl-2-(3-(4-(difluoromethoxy)phenyl)-6-oxopyridazin-1(6H)-yl)acetamide] had a pIC50 of more than 5.00.

`O=C(Cn1nc(-c2ccc(OC(F)F)cc2)ccc1=O)NCC(F)F` [II-15, N-(2,2-difluoroethyl)-2-(3-(4-(difluoromethoxy)phenyl)-6-oxopyridazin-1(6H)-yl)acetamide] had a negative-log IC50 (pIC50) of 4.00 to 5.00.

Take `CCNC(=O)Cn1nc(-c2ccc(NC(C)=O)cc2)ccc1=O` [II-2, 2-(3-(4-acetamidophenyl)-6-oxopyridazin-1(6H)-yl)-N-ethylacetamide]: the negative-log IC50 (pIC50) is more than 5.00.

Still in this experiment, the particulars now being: Table 4C.
In turn, `COc1ccc(-c2ccc(=O)n(CC(=O)NCc3cc(F)ccc3Cl)n2)cc1` [IIIa-7, N-(2-chloro-5-fluorobenzyl)-2-(3-(4-methoxyphenyl)-6-oxopyridazin-1(6H)-yl)acetamide] showed a negative logarithm of the IC50 (pIC50) of more than 5.00. Compound `COc1ccc(-c2ccc(=O)n(CC(=O)NC(C)CCc3ccccc3)n2)c(F)c1` (stereo not shown) [IIIb-36, 2-(3-(2-fluoro-4-methoxyphenyl)-6-oxopyridazin-1(6H)-yl)-N-(4-phenylbutan-2-yl)acetamide] gave a pIC50 of 4.00 to 5.00. Same read-out and setting: as for `COc1ccc(-c2ccc(=O)n(CC(=O)NCCC(C)C)n2)cc1` [IIIb-48, N-isopentyl-2-(3-(4-methoxyphenyl)-6-oxopyridazin-1(6H)-yl)acetamide], the figure is less than 4.00; as for `COc1ccc(-c2ccc(=O)n(CC(=O)NCc3ccccc3Cl)n2)cc1` [IIIb-1, N-(2-chlorobenzyl)-2-(3-(4-methoxyphenyl)-6-oxopyridazin-1(6H)-yl)acetamide], more than 5.00; as for `CCc1cccc(NC(=O)Cn2nc(-c3ccc(C)cc3)ccc2=O)c1` [IIIc-1, N-(3-ethylphenyl)-2-(6-oxo-3-(p-tolyl)pyridazin-1(6H)-yl)acetamide], more than 5.00. For the compound `Cc1ccc(-c2ccc(=O)n(CC(=O)NC3CCCCCC3)n2)cc1` [IIIc-4, N-cycloheptyl-2-(6-oxo-3-(p-tolyl)pyridazin-1(6H)-yl)acetamide], the negative logarithm of the IC50 (pIC50) was 4.00 to 5.00. Still for that read-out and setting: as for `COc1ccc(-c2ccc(=O)n(CC(=O)NCCc3ccccc3)n2)cc1` [IIIa-5, 2-(3-(4-methoxyphenyl)-6-oxopyridazin-1(6H)-yl)-N-phenethylacetamide], the figure is more than 5.00; as for `COc1ccccc1NC(=O)Cn1nc(-c2ccccc2)ccc1=O` [IIIc-58, N-(2-methoxyphenyl)-2-(6-oxo-3-phenylpyridazin-1(6H)-yl)acetamide], 4.00 to 5.00; as for `COc1ccc(-c2ccc(=O)n(CC(=O)Nc3ccc4c(c3)OCO4)n2)c(F)c1` [IIIb-33, N-(benzo[d][1,3]dioxol-5-yl)-2-(3-(2-fluoro-4-methoxyphenyl)-6-oxopyridazin-1(6H)-yl)acetamide], 4.00 to 5.00. Same read-out and setting: the same measure for `COc1ccc(-c2ccc(=O)n(CC(=O)NCc3ccc(Cl)cc3Cl)n2)cc1` [IIIa-12, N-(2,4-dichlorobenzyl)-2-(3-(4-methoxyphenyl)-6-oxopyridazin-1(6H)-yl)acetamide]: more than 5.00; for `O=C(Cn1nc(-c2ccc(Cl)cc2)ccc1=O)Nc1ccc2[nH]ccc2c1` [IIIc-22, 2-(3-(4-chlorophenyl)-6-oxopyridazin-1(6H)-yl)-N-(1H-indol-5-yl)acetamide]: more than 5.00. Same read-out and setting: as for `CN(Cc1ccccc1)C(=O)Cn1nc(-c2ccc(Cl)cc2)ccc1=O` [IIIc-32, N-benzyl-2-(3-(4-chlorophenyl)-6-oxopyridazin-1(6H)-yl)-N-methylacetamide], the figure is 4.00 to 5.00; as for `COc1ccc(-c2ccc(=O)n(CC(=O)NCC(C)C)n2)cc1` [IIIb-29, N-isobutyl-2-(3-(4-methoxyphenyl)-6-oxopyridazin-1(6H)-yl)acetamide], 4.00 to 5.00. On to `COc1ccc(-c2ccc(=O)n(CC(=O)NCc3ccc(C)cc3)n2)cc1` [IIIa-15, 2-(3-(4-methoxyphenyl)-6-oxopyridazin-1(6H)-yl)-N-(4-methylbenzyl) acetamide], for which the negative logarithm of the IC50 (pIC50) was more than 5.00. Turning to `COc1ccc(-c2ccc(=O)n(CC(=O)Nc3cccc4c3ccn4C)n2)cc1` [IIIb-4, 2-(3-(4-methoxyphenyl)-6-oxopyridazin-1(6H)-yl)-N-(1-methyl-1H-indol-4-yl)acetamide], the negative logarithm of the IC50 (pIC50) is more than 5.00. Same read-out and setting: the same measure for `O=C(Cn1nc(-c2ccc3c(c2)OCCO3)ccc1=O)Nc1ccccc1F` [IIIb-6, 2-(3-(2,3-dihydrobenzo[b][1,4]dioxin-6-yl)-6-oxopyridazin-1(6H)-yl)-N-(2-fluorophenyl)acetamide]: more than 5.00. The same measure, in the same setting: as for `COc1ccc(-c2ccc(=O)n(CC(=O)NCc3ccco3)n2)cc1` [IIIb-53, N-(furan-2-ylmethyl)-2-(3-(4-methoxyphenyl)-6-oxopyridazin-1(6H)-yl)acetamide], the figure is less than 4.00.

In general, pIC50 refers to the negative decadic logarithm of the IC50, by convention in mol/L. Read a high pIC50 as a low IC50.
